“Also recorded” adds a separate entry of the source.
Experiments:
SKH-1 mice = experiment: Preliminary experiment assessing adverse effects of bucillamine alone in SKH-1 mice; type: in vivo; conditions: 20 mg/kg s.c., two doses 24 hours apart, no UVB
Experimental: In order to assess any adverse effects of bucillamine and UV exposure separately, a preliminary experiment was carried out in which SKH-1 mice were either treated with bucillamine (20 mg/kg s.c.) or UVB (230 mJ/cm^2) irradiation. Bucillamine can, for example, be administered intravenously, subcutaneously, intramuscularly or orally. Subcutaneous administration was used because it is a relatively easy route and the least likely to injure the animal during administration. The selection of bucillamine dose and UVB dose was based on previously published studies (13, 19, 21, 22). High dose of UVB (230 mJ/cm^2) was selected to investigate bucillamine effect on acute photodamage. Each group of animals received two doses of bucillamine or UVB, 24 hours apart. […] UVB exposure caused edema, erythema and thickening of the exposed skin.

p53 [1] = experiment: UVB-mediated total p53 induction in skin lysates (immunoblot); type: in vivo, mice; conditions: 20 mg/kg s.c. pre-treatment
Text: (§1) Animals and treatment for Example 2. Female SKH-1 hairless mice (6 weeks old) were purchased from Charles River Laboratories (Wilmington, Mass.). After their arrival, animals were housed at UCDHSC vivarium under specific pathogen-free conditions according to the National Institutes of Health Animal Care Guidelines under an Institutional protocol reviewed and approved by the Institutional Animal Care and Use Committee (IACUC). Animals were allowed to acclimatize for a week prior to the experiment. Animals were fed Purina chow diet and water ad libitum. Throughout the experimental protocol, the mice were maintained at standard conditions; temperature 24±2° C., relative humidity 50±10%, and 12 hour room light/12 hour dark cycle. Mice were divided into four groups. […] The remaining animals were divided into UV exposure alone (Group 2), UV+saline treatment (Group 3) and UV+bucillamine treatment (Group 4). Mice in groups 2-4 were exposed to two doses of 230 mJ/cm^2 UVB, 24 hours apart. Two hours prior to each UVB exposure, mice in groups 3 and 4 were treated with normal saline (Group 3) or bucillamine at a concentration of 20 mg/kg of body weight (Group 4) subcutaneously. […]
(§2) SDS-PAGE and immunoblot analysis. Proteins were analyzed by SDS-PAGE (12% gels) followed by transfer to a polyvinylidene difluoride membrane (0.4 μM) in 25 mM Tris, 192 mM glycine, and 20% methanol at 110 V for 1 hour. […]

p53 [2] = experiment: Immunohistochemical analysis of nuclear p53 staining in epidermal keratinocytes; type: in vivo, mice; conditions: 24 hours after the last UVB exposure; 20 mg/kg s.c. pre-treatment
Text: Animals and treatment for Example 2. Female SKH-1 hairless mice (6 weeks old) were purchased from Charles River Laboratories (Wilmington, Mass.). After their arrival, animals were housed at […] vivarium under specific pathogen-free conditions according to the National Institutes of Health Animal Care Guidelines under an Institutional protocol reviewed and approved by the Institutional Animal Care and Use Committee (IACUC). Animals were allowed to acclimatize for a week prior to the experiment. Animals were fed Purina chow diet and water ad libitum. Throughout the experimental protocol, the mice were maintained at standard conditions; temperature 24±2° C., relative humidity 50±10%, and 12 hour room light/12 hour dark cycle. Mice were divided into four groups. […] The remaining animals were divided into UV exposure alone (Group 2), UV+saline treatment (Group 3) and UV+bucillamine treatment (Group 4). Mice in groups 2-4 were exposed to two doses of 230 mJ/cm^2 UVB, 24 hours apart. Two hours prior to each UVB exposure, mice in groups 3 and 4 were treated with normal saline (Group 3) or bucillamine at a concentration of 20 mg/kg of body weight (Group 4) subcutaneously. […] All samples were coded and evaluated by at least two investigators in a blinded manner. […]

PUMA = experiment: UVB-induced activation of PUMA, downstream target of p53, in skin; type: in vivo, mice; conditions: 12 and 24 hours after the last UVB exposure; 20 mg/kg s.c. pre-treatment
Text: as §1, §2

[3] = test system: UV-exposed skin of SKH-1 hairless mice; experiment: Histology of UVB-exposed dorsal skin after bucillamine pre-treatment; type: in vivo
Text: Animals and treatment for Example 2. Female SKH-1 hairless mice (6 weeks old) were purchased from Charles River Laboratories (Wilmington, Mass.). After their arrival, animals were housed at UCDHSC vivarium under specific pathogen-free conditions according to the National Institutes of Health Animal Care Guidelines under an Institutional protocol reviewed and approved by the Institutional Animal Care and Use Committee (IACUC). Animals were allowed to acclimatize for a week prior to the experiment. Animals were fed Purina chow diet and water ad libitum. Throughout the experimental protocol, the mice were maintained at standard conditions; temperature 24±2° C., relative humidity 50±10%, and 12 hour room light/12 hour dark cycle. Mice were divided into four groups. […] The remaining animals were divided into UV exposure alone (Group 2), UV+saline treatment (Group 3) and UV+bucillamine treatment (Group 4). Mice in groups 2-4 were exposed to two doses of 230 mJ/cm^2 UVB, 24 hours apart. Two hours prior to each UVB exposure, mice in groups 3 and 4 were treated with normal saline (Group 3) or bucillamine at a concentration of 20 mg/kg of body weight (Group 4) subcutaneously. Animals were sacrificed after the last UVB exposure at various time points, and the dorsal skin was surgically removed and used for further analysis.
UVB Source. We employed four FS-40-T-12-UVB sunlamps with UVB spectra 305 Dosimeter (Daavlin, Bryan, Ohio), which emitted about 80% radiation in the range of 280-340 nm with a peak emission at 314 nm as monitored with a SEL 240 photodetector, 103 filter and 1008 diffuser attached to an IL1400A NIST Traceable Radiometer/Photometer from International Light (Newburyport, Mass.). The UVB irradiation doses were also calibrated using an IL1400A radiometer.
Histopathology. Skin samples were fixed in 10% formalin and embedded in paraffin. Vertical sections (4 μm thickness) were cut and mounted on a glass slide, and stained with hematoxylin and eosin followed by microscopic evaluation of the slides. SKH-1 hairless mice were unexposed or irradiated with UVB (230 mJ/cm^2) twice, 24 hours apart. Mice irradiated with UVB were untreated or pre-treated with bucillamine or saline. Skin samples were collected at 6 hours and 24 hours after the last UVB exposure, and processed for histopathological analysis.

p53 (Ser15, Ser20) = experiment: UVB-induced phosphorylation of p53 at Ser15 and Ser20 in skin (immunoblot); type: in vivo, mice; conditions: 20 mg/kg s.c. pre-treatment
Text: as §1, §2

[4] = test system: ubiquitin proteasomal pathway (UPP) in 8B20 mouse melanoma cells; experiment: Ubiquitin immunoblot controls for UPP inhibition in 8B20 cells; type: cell-based; conditions: 50 μM, negative control
Experimental: As a positive control of UPP inhibition, we used 8B20 mouse melanoma cells treated with UPP inhibitors MG132 (10 μM) and Lactacystin (10 μM), and as a negative control we used 8B20 cells treated with etoposide (50 μM), a DNA damaging agent.
SDS-PAGE and immunoblot analysis. Proteins were analyzed by SDS-PAGE (12% gels) followed by transfer to a polyvinylidene difluoride membrane (0.4 μM) in 25 mM Tris, 192 mM glycine, and 20% methanol at 110 V for 1 hour. Membranes were blocked overnight in 10 mM Tris-HCl, pH 8.0, 125 mM NaCl, and 0.2% (v/v) Tween 20 containing 5% (w/v) nonfat dry milk (TBST-M5). Immunoblot analysis of the total protein bands were visualized using enhanced chemiluminescence as described by the manufacturer (Pierce Biotechnology, Inc., Rockford, Ill.). Immunoblots were subsequently stripped of antibodies by incubating for 15-20 minutes at 37° C. with Restore Western Stripping Buffer (Pierce Biotechnology, Inc., Rockford, Ill.) and re-probed with β-actin antibody to confirm protein loading. Densitometric analysis of the membranes was performed using GelDoc 200 (Bio-Rad Laboratories, Hercules, Calif.).

[5] = 12 and 24 hours after the last UVB exposure
[6] = 6 hours after the last UVB exposure

Row | Structure (SMILES) | adverse effects (SKH-1 mice) | p53 level (p53 [1]; [5]) | induction of total p53 (p53 [1]; [6]) | nuclear p53 staining in epidermal keratinocytes (p53 [2]) | activation of PUMA (PUMA) | UVB-induced erythema of dorsal skin ([3]; 20 mg/kg s.c. 2 h before each of two 230 mJ/cm^2 UVB exposures) | UVB-induced inflammation ([3]; 12 and 24 hours after the last UVB exposure, pre-treatment) | epidermal necrosis (histology) ([3]; 6 hours after the last UVB exposure, 20 mg/kg s.c. pre-treatment) | UV-effects on inflammation (dermal edema, leukocyte infiltration, dilatation of blood vessels) ([3]; 24 hours after the last UVB exposure, 20 mg/kg s.c. pre-treatment) | phosphorylation of p53 at Ser15 and Ser20 (p53 (Ser15, Ser20); [5]) | phosphorylation of p53 at Ser15 and Ser20 (p53 (Ser15, Ser20); [6]) | ubiquitin reactive high molecular weight bands (polyubiquitinated species) [4]
1 | CC(C)(S)C(=O)N[C@@H](CS)C(=O)O [bucillamine, N-(2-mercapto-2-methylpropionyl)-L-cysteine] | no adverse effects | further decreased | attenuated this effect | diminished this effect | attenuated the activation of PUMA | attenuated the erythema | attenuated the inflammation | epidermal necrosis was less prominent | attenuated the UV-effects on inflammation | further diminished the phosphorylation; also recorded: quick decrease | attenuated this effect | –
2 | COc1cc([C@@H]2c3cc4c(cc3[C@@H](O[C@@H]3O[C@@H]5CO[C@@H](C)O[C@H]5[C@H](O)[C@H]3O)[C@H]3COC(=O)[C@H]23)OCO4)cc(OC)c1O [etoposide] | – | – | – | – | – | – | – | – | – | – | – | no polyubiquitinated species

Source: patent publication US20090169497A1, “Treatment and Prevention of Skin Injury Due to Exposure to Ultraviolet Light” (priority 2007, published 2009)
